Assay results taken from PMC3723252, “Trypanocidal Activity of Thioamide-Substituted Imidazoquinolinone: Electrochemical Properties and Biological Effects” (Evidence-based Complementary and Alternative Medicine : eCAM, 2013).
Like-named read-outs stand apart in the source and are kept apart here.

Tests used:
[1] = test system: bloodstream trypomastigotes; assay: Trypanocidal effect on bloodstream trypomastigotes (24 h, mouse blood); format: cell-based; settings: Trypanosoma cruzi, % lysed parasites
Experimental: (§1) Trypanosoma cruzi epimastigotes (Tulahuen strain) were grown as previously described. Bloodstream trypomastigotes were obtained from infected CF1 mice by cardiac puncture. Tulahuen strain expressing the β-galactosidase gene was kindly provided by Dr Buckner (University of Washington, USA).
The trypanocidal effects of C1, C2, C3, D and Bnz were also tested on bloodstream trypomastigotes according to a standard WHO protocol slightly modified. Briefly, mouse blood containing trypomastigotes was treated with different concentrations of each compound (0.30 to 350 μM) or Bnz (0.38 to 38 μM). Plates were incubated for 24 h, and surviving parasites were counted in a Neubauer chamber as previously described. Results were expressed as the percentage of lysed parasites (%L) relative to the number of parasites in the control: %L = [1 − (CDt/(CDc)] × 100, where CDt and CDc represent the cellular density of treated and untreated parasites, respectively.
(§2) The results presented are representative of three to four separate experiments, performed in duplicates or triplicates. All data are expressed as means ± standard errors of the mean (SEM). To calculate the IC50 values, the %I or %L values were plotted against the log of drug concentration (μM) and fitted with a straight line determined by a linear regression (Sigma Plot 10 software). The significance of differences was evaluated using Student' t test, taking a P < 0.05 as significant. Flow cytometry data were analyzed employing the WinMDI 2.9 software.

[2] = Cytotoxicity assay (MTT, 48 h); format: cell-based; settings: African green monkey, Vero cells
Experimental: Vero cells were cultivated with different concentrations of each compound (12.5–100.0 μM) or Bnz (3.0–3000 μM). After 48 h of incubation, cells were washed and viability was measured by the MTT assay as previously described. The selectivity index (SI) was calculated as the 50% cytotoxic concentration (CC50) obtained with Vero cells divided by the 50% inhibitory concentration (IC50) obtained with T. cruzi.

[3] = test system: Trypanosoma cruzi epimastigotes (Tulahuen strain); assay: Growth inhibition of epimastigotes (cell counting, 4 days); format: cell-based; settings: 96 h, read-out: Epimastigotes IC50
Experimental: as §1
(§3) Cells growth was assessed by counting the number of cells per mL of culture using a Neubauer chamber and was expressed as cellular density (CD). The percentage of inhibition (%I) was calculated as %I = {1 − [(CD4t − CD0)/(CD4c − CD0)]} × 100, where the different CDs represent the cellular density of CD4t, treated parasites on day 4; CD0, parasites on day 0; and CD4c, untreated parasites (control) on day 4.
as §2

[4] = test system: superoxide dismutase (SOD); assay: SOD activity in C1-treated epimastigotes; format: cell-based, Trypanosoma cruzi; settings: control without C1 = 100%
Experimental: (§4) Epimastigotes of T. cruzi from a 4 days culture were incubated with C1 (7.5–22.5 μM) during 5–36 hours. Cells were harvested, washed and then the following biochemical assays were carried out.
(§5) (b) Determination of Antioxidant Enzymes Activity. The activities of superoxide dismutase (SOD), ascorbate peroxidase (APx), and trypanothione reductase (TryR) were assayed as previously established.
(§6) Protein concentration was determined according to the method described by Lowry et al.. These values were used to express the specific enzymatic activities as activity per mg of protein.

[5] = test system: trypanothione reductase (TryR); assay: TryR activity in C1-treated epimastigotes; format: cell-based, Trypanosoma cruzi; settings: control without C1 = 100%
Experimental: as §4, §5, §6

[6] = test system: Epimastigotes of T. cruzi; assay: Determination of total thiol groups (DTNB); format: cell-based, Trypanosoma cruzi
Experimental: as §4
(c) Determination of Total Thiol Groups. The thiol groups content was determined employing the chromogenic compound 5,5′-dithiobis-2-nitrobenzoate (DTNB), as already described.

[7] = test system: amastigotes (Tulahuen strain expressing the β-galactosidase gene) in J774 cells; assay: Amastigote assay in infected J774 cells (β-galactosidase, CPRG); format: cell-based; settings: Trypanosoma cruzi, 168 h, 7 days
Experimental: as §1
For analysis of amastigotes, J774 cells were infected with bloodstream trypomastigotes expressing the β-galactosidase gene at a parasite: cell ratio of 10 : 1. After 24 h, cell cultures were washed and each compound (2 to 100 μM) was added in fresh RPMI medium without phenol red (to avoid interference with absorbance readings at 570 nm). After 7 days, the assay was developed as described. The galactosidase activity was quantified using CPRG as substrate and measuring absorbance at 570 nm in a Microplate Reader (Bio-Rad Laboratories). Since the assayed compounds are coloured, blanks including uninfected cells with different doses of each compound were performed. The percentage of inhibition was calculated as %I = {1 − [(A it − A nit)/(A ic − A nic)]} × 100, where A represents the mean A 570 value recorded for A it, treated infected cells; A nit, treated noninfected cells; A ic, untreated infected cells; and A nic, untreated noninfected cells.
as §2

[8] = test system: Epimastigotes of T. cruzi; assay: Mitochondrial membrane potential (DiOC6 staining); format: cell-based, Trypanosoma cruzi; settings: 22.5 μM, 31% for the control (0 h)
Experimental: as §4
(§7) Mitochondrial membrane potential was assessed using two well-established assays: 3,3′-dihexyloxacarbocyanine iodide (DiOC6) staining and the cytochrome c release.
For the DiOC6 assay, epimastigotes (10^6) were permeabilized for 20 min at room temperature with 0.01% saponin, washed, and incubated with 30 nM DiOC6 for 30 min at 37°C. The positive control was done with 250 nM trifluoromethoxy carbonyl cyanide phenyl hydrazone (FCCP) as depolarizing agent. Stained cells were analyzed by flow cytometry with an excitation wavelength of 484 nm and an emission wavelength of 511 nm.

Cyclic voltammetry = format: physicochemical
Experimental: Cyclic voltammograms for C1, C2, and C3 dissolved in 1% DMSO were carried out using an EQMAT instrument with an EQSOFT Processor, at a sweep rate of 0.2 V/s under a nitrogen atmosphere at room temperature, employing lithium perchlorate as supporting electrolyte. A three-electrode cell was used equipped with a vitreous carbon as working electrode, a gold wire as auxiliary electrode, and a saturated calomel as reference electrode.

[9] = test system: Epimastigotes of T. cruzi; assay: Cytochrome c release (Western blot, densitometry); format: cell-based, Trypanosoma cruzi; settings: 22.5 μM, at 36 h, relative to level detected after 24 h
Experimental: as §4, §7
To evaluate the cytochrome c release, parasites (3 × 10^8) were resuspended in PBS containing 200 μg/mL digitonin, incubated on ice for 15 min and then centrifuged at 9 000 ×g for 10 min at 4°C. Both, mitochondrial-rich fraction (pellet, resuspended in 50 μL of PBS) and cytosolic fraction (150 μL) were subjected to Western-blot analysis for cytochrome c. Protein extracts (10 μL and 30 μL of mitochondrial and cytosolic fractions, resp.) were resolved by 14% SDS/PAGE, transferred to nitrocellulose membranes, blocked with 3% skimmed milk in PBS, and then incubated with specific antibodies, according to the protocol of Piacenza et al.. Relative intensities of bands were quantified by densitometry using Scion Image software (Scion). Results were expressed in arbitrary units.

[10] = test system: Epimastigotes of T. cruzi; assay: Parasite death by Annexin V-FITC/PI staining (flow cytometry); format: cell-based, Trypanosoma cruzi; settings: for early apoptotic cells / late apoptotic cells: 22.5 μM; for early apoptotic cells: 0.8% at 0 h; for late apoptotic cells: 2.8% at 0 h; for viability at 22.5 µM: Trypanosoma cruzi, 95.9% for control (0 h), read-out: viable nonapoptotic cells
Experimental: as §4
Cell viability and phosphatidylserine (PS) exposure on the parasite surface were assessed by propidium iodide (PI) and Annexin V-fluorescein isothiocyanate (FITC) staining, according to the manufacturer's instructions (Invitrogen). Epimastigotes exposed to 30% fresh human serum for 2 h at 28°C were used as positive control. Parasites were analysed by flow cytometry acquiring 20,000 events per sample.

[11] = test system: ascorbate peroxidase (APx); assay: APx activity in C1-treated epimastigotes; format: cell-based, Trypanosoma cruzi; settings: control without C1 = 100%
Experimental: as §4, §5, §6

T. cruzi = assay: Effect of DTT, ascorbic acid and GSH on anti-T. cruzi activity of C1; format: cell-based, Trypanosoma cruzi
Experimental: as §3

[12] = test system: Epimastigotes of T. cruzi; assay: Intracellular oxidative activity (H2DCFDA flow cytometry); format: cell-based, Trypanosoma cruzi; settings: 7.5, 15 and 22.5 μM; 5, 12 and 24 h; data not shown
Experimental: as §4
(a) Assay of Intracellular Oxidative Activity. The intracellular oxidative activity was assessed by flow cytometry using the oxidant-sensitive fluorescent probe H2DCFDA. As a positive control cells were treated with 0.1 mM H2O2. Stained cells were then analyzed by a FACSCalibur flow cytometer (Becton Dickinson) with an excitation wavelength of 480 nm and an emission wavelength of 530 nm. Flow cytometry results were expressed by the ratio Gmt/Gmc, where Gmt and Gmc correspond to the geometric mean of histograms obtained for treated and untreated cells, respectively.

[13] = 1% DMSO, sweep rate 0.2 V/s, saturated calomel reference electrode

SMILES: O=C(Cn1ccnc1[N+](=O)[O-])NCc1ccccc1 [Bnz, Benznidazole, reference compound]
- IC50 [1]: 30.3 ± 2.85 µM
- CC50 at 48 h [2]: 82.8 ± 2.75 µM
- IC50 [3]: 5.49 ± 0.89 µM

SMILES: O=c1c2ccccc2c(C(=S)Nc2ccccc2)c2n1CCN2 [Compound C1, N-phenyl-5-oxo-1,2,3,5-tetrahydroimidazo[1,2-b]isoquinolin-10-carbothioamide]
- SOD activity (%) ([4]; 5 h, 7.5 µM): 95.85 ± 2.50%
- SOD activity (%) ([4]; 5 h, 15.0 µM): 99.31 ± 4.30%
- SOD activity (%) ([4]; 5 h, 22.5 µM): 90.09 ± 2.30%
- SOD activity (%) ([4]; 12 h, 7.5 µM): 99.75 ± 2.90%
- SOD activity (%) ([4]; 12 h, 15.0 µM): 103.92 ± 4.30%
- SOD activity (%) ([4]; 12 h, 22.5 µM): 88.48 ± 3.20 %
- SOD activity (%) ([4]; 24 h, 7.5 µM): 98.74 ± 7.30%
- SOD activity (%) ([4]; 24 h, 15.0 µM): 89.78 ± 3.50 %
- SOD activity (%) ([4]; 24 h, 22.5 µM): 78.27 ± 4.20 %
- TryR activity (%) ([5]; 5 h, 7.5 µM): 152.23 ± 6.38 %
- TryR activity (%) ([5]; 5 h, 15.0 µM): 177.17 ± 15.56 %
- TryR activity (%) ([5]; 5 h, 22.5 µM): 143.89 ± 4.80 %
- TryR activity (%) ([5]; 12 h, 7.5 µM): 188.60 ± 12.30 %
- TryR activity (%) ([5]; 12 h, 15.0 µM): 251.62 ± 15.56 %
- TryR activity (%) ([5]; 12 h, 22.5 µM): 190.55 ± 14.29 %
- TryR activity (%) ([5]; 24 h, 7.5 µM): 165.23 ± 9.80 %
- TryR activity (%) ([5]; 24 h, 15.0 µM): 198.27 ± 9.30 %
- TryR activity (%) ([5]; 24 h, 22.5 µM): 163.56 ± 7.60 %
- IC50 [1]: 34.9 ± 1.2 µM
- decrease of low molecular mass thiols ([6]; 22.5 μM, 24 h of incubation): not more than 20%
- level of low molecular mass thiols ([6]; all C1 concentrations tested, 5 and 12 h, data not shown): remain constant
- IC50 [7]: 1.74 ± 0.3 µM
- Depolarized cells ([8]; 24 h): 77%
- Depolarized cells ([8]; 36 h): 84%
- anodic peak (irreversible oxidation) (Cyclic voltammetry; [13]): 0.78 V
- cathodic peak (irreversible reduction) (Cyclic voltammetry; [13]): −1.04 V
- increase of cytochrome c in the parasite cytosol [9]: 2.5–3 times
- early apoptotic cells ([10]; 24 h): 8.7%
- late apoptotic cells ([10]; 24 h): 4.9%
- early apoptotic cells ([10]; 36 h): 51.0%
- late apoptotic cells ([10]; 36 h): 7.7%
- viability at 22.5 µM ([10]; 24 h): 84.8%
- viability at 22.5 µM ([10]; 36 h): 40.4%
- APx activity (%) ([11]; 5 h, 7.5 µM): 111.26 ± 7.60%
- APx activity (%) ([11]; 5 h, 15.0 µM): 98.31 ± 2.10%
- APx activity (%) ([11]; 5 h, 22.5 µM): 105.20 ± 6.20%
- APx activity (%) ([11]; 12 h, 7.5 µM): 98.30 ± 2.30%
- APx activity (%) ([11]; 12 h, 15.0 µM): 95.91 ± 4.10%
- APx activity (%) ([11]; 12 h, 22.5 µM): 93.48 ± 6.20%
- APx activity (%) ([11]; 24 h, 7.5 µM): 108.35 ± 9.20%
- APx activity (%) ([11]; 24 h, 15.0 µM): 105.30 ± 6.56%
- APx activity (%) ([11]; 24 h, 22.5 µM): 96.25 ± 5.80%
- effect of DTT and ascorbic acid on the inhibitory action of the drug (T. cruzi; C1 1 up to 2.5 μM, at the antioxidant concentrations tested): considerably enhanced
- effect of GSH on the inhibitory effect of C1 (T. cruzi; GSH 5 μM): completely abrogated
- IC50 [3]: 1.49 ± 0.28 µM
- ratio Gmt/Gmc (H2DCFDA fluorescence) [12]: around 1

SMILES: O=c1c2ccccc2c(C(=S)Nc2ccc(Cl)cc2)c2n1CCN2 [Compound C2, N-(4-chlorophenyl)-5-oxo-1,2,3,5-tetrahydroimidazo[1,2-b]isoquinolin-10-carbothioamide]
- IC50 [1]: 306 ± 15 µM
- IC50 [7]: 3.63 ± 0.51 µM
- IC50 [3]: 5.57 ± 0.53 µM

SMILES: Cc1ccc(NC(=S)c2c3n(c(=O)c4ccccc24)CCN3)cc1 [Compound C3]
- IC50 [1]: 246 ± 18 µM
- IC50 [7]: 1.5 ± 0.32 µM
- IC50 [3]: 1.5 ± 0.3 µM

SMILES: O=C(Nc1ccccc1)c1c2n(c(=O)c3ccccc13)CCN2 [D, 5-oxo-N-phenyl-1,2,3,5-tetrahydroimidazo[1,2-b]isoquinolin-10-carboxamide]
- IC50 [1]: > 300 µM
- IC50 [7]: 11.4 ± 1.21 µM
- IC50 [3]: > 25 µM

SMILES: O=c1c2ccccc2cc2n1CCN2 [heterocycle precursor, 2,3-dihydroimidazo[1,2-b]isoquinolin-5(1-H)-one]
- cathodic and anodic peaks (Cyclic voltammetry; subjected to the same potentials as C1): Neither the cathodic nor the anodic peaks were measurable
- IC50 [3]: > 25 µM
